Here are results for 17 compounds from patent US11702414B2, “Thiadiazole IRAK4 inhibitors” (Gilead Sciences, Inc., priority 2018, dated 2023).

One assay has as its system TNFα. In words: IRAK4 Monocyte TNFα Cell Based Assay. Also on record: species or system human. Conditions: Homo sapiens, Monocyte, human monocytes. The method, then:
IRAK4 Monocyte TNFα Cell Based Assay Procedure:
The cell suspension was then plated at a density of 5,000 cells/well onto black 384 well Greiner clear bottom plates. Plates were pre-spotted with test compounds and serially diluted in DMSO where 40 nL/well were delivered using the Echo 550 acoustic liquid dispenser (Labcyte®) for a final DMSO concentration of 0.1%. Plated cells were treated with compound for 1 hour at 37° C. Cells were then stimulated with 50 pg/ml of LPS (Sigma) excluding outside columns of plate used for unstimulated cell control wells. Cells were incubated for an additional 4 hours at 37° C. Cells were then spun out of the media and 5μl of sample were taken and analyzed for total TNFα content using the TR-FRET Human TNFα detection system (CisBio). This system utilizes two labeled antibodies (cryptate and XL665) that bind to two different epitopes of the TNFα molecule and produce FRET signal proportional to the concentration of TNFα in the sample. Detection antibodies are mixed 50:50 and 5 μL were dispensed into each well. Plates were covered with clear seals and incubated at room temp overnight. […] Percent of control was calculated as follows: % Control=100×(RatioSample−Ratio0% Stimulation)/(Ratio100% Stimulation−Ratio0% Stimulation) where unstimulated cells (0% stimulation) were the negative control and stimulated cells (100% stimulation) were used as the positive control.

In a further assay the target is IRAK4 enzyme (Homo sapiens (Human), UniProt Q9NWZ3). In words: IRAK4 Biochemical Assay (TR-FRET, STK1 KinEASE). The protocol: IRAK4 enzyme (Carna Biosciences, Chuo-ku, Kobe, Japan) activity was measured by detecting phosphorylated peptide substrate formation using an antibody against the phosphorylated peptide substrate. This is a time-resolved fluorescence resonance energy transfer (TR-FRET) immunoassay, based on the STK1 KinEASE Assay (Cisbio, Bedford, Mass.). The assay was designed as a simple two-step, endpoint assay (a 5 μl enzyme reaction followed by 5 μl stop and detect Solution) performed in ProxiPlate-384 Plus plates (Perkin Elmer, Waltham, Mass.). […] Compounds diluted in DMSO were spotted into 384 well plates using a Labcyte® Echo 550 Liquid Handling System prior to addition of IRAK4 enzyme and peptide substrate. Reaction solutions were delivered using a Multi-Flo (Bio-Tek Instruments). The enzyme and peptide solution was incubated with compound for 15 minutes at room temp before the reaction was initiated by the addition of ATP. The standard 5 μl reaction mixture contained 500 μM ATP, 2 μM peptide (STK1 Peptide), 0.75 nM of IRAK4 in reaction buffer (50 mM HEPES, pH 7.0, 0.02% NaN3, 0.01% BSA, 0.1 mM Orthovanadate, 5 mM MgCl2, 0.025% NP-40, 1 mM DTT). After 120 min of incubation at room temperature, 5 μl of Stop and Detect Solution (1:100 Cryptate labeled anti-phosphorylated peptide antibody solution and 125 nM Tracer in a 50 mM HEPES pH 7.0 detection buffer containing sufficient EDTA) was added. The plate was then further incubated for 60 minutes at room temperature and read on Envision 2103 Multilabeled reader (PerkinElmer) with excitation/emission/FRET emission at 340 nm/615 nm/665 nm, respectively. Fluorescence intensities at 615 nm and 665 nm emission wavelengths were expressed as a ratio (665 nm/615 nm). Percentage of inhibition was calculated as below: % Inhibition=100×(RatioSample−Ratio0% Inhibition)/(Ratio100% Inhibition−Ratio0% Inhibition)
Chain of IRAK4 enzyme (Q9NWZ3 whole entry): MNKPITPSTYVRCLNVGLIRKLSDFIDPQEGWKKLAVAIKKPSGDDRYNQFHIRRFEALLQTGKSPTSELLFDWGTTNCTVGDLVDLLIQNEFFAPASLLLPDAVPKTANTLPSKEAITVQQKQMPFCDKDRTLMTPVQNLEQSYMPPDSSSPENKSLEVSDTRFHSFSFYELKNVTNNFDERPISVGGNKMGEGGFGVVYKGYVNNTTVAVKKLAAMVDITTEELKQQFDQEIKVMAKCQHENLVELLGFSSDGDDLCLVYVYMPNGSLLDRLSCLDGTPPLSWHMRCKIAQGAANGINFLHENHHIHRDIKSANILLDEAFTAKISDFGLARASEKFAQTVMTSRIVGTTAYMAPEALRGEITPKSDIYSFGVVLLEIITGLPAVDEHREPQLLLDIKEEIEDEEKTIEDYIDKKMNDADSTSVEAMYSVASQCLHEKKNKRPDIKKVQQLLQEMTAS
The 0% inhibition value comes from control wells lacking inhibitor.

Where [1] appears, read: second part of Table 2 (compounds 33-343), unit inferred, read-out: EC50MONO TNF HTRF.

Like-named read-outs stand apart in the source and are kept apart here.

As to `CC(C)Nc1cc(-c2ccc3cc(C#N)cnn23)ncc1-c1nnc(C2CCC(C#N)CC2)s1` (stereo not shown) [Compound 333, 7-(5-(5-(4-cyanocyclohexyl)-1,3,4-thiadiazol-2-yl)-4-(isopropylamino)pyridin-2-yl)pyrrolo[1,2-b]pyridazine-3-carbonitrile], the EC50 in the assay on TNFα (setting [1]) was 1000 nM. On IRAK4 enzyme, this compound yielded an IC50 of 1.99 nM.
In the case of `CC(=O)NC12CCC(c3nnc(-c4cnc(-c5ccc6cc(C#N)cnn56)cc4NC4COC4)s3)(C1)C2` [Compound 334, N-(4-(5-(6-(3-cyanopyrrolo[1,2-b]pyridazin-7-yl)-4-(oxetan-3-ylamino)pyridin-3-yl)-1,3,4-thiadiazol-2-yl)bicyclo[2.1.1]hexan-1-yl)acetamide], the EC50 with TNFα (setting [1]) stood at 98.9 nM. Moreover, inhibition on IRAK4 enzyme was half-maximal at 2.41 nM (IC50).
Consider `CC(C)(O)C(=O)NC12CCC(c3nnc(-c4cnc(-c5ccc6cc(C#N)cnn56)cc4NC4COC4)s3)(C1)C2` [Compound 335, N-(4-(5-(6-(3-cyanopyrrolo[1,2-b]pyridazin-7-yl)-4-(oxetan-3-ylamino)pyridin-3-yl)-1,3,4-thiadiazol-2-yl)bicyclo[2.1.1]hexan-1-yl)-2-hydroxy-2-methylpropanamide], for which the EC50 in the assay on TNFα (setting [1]) came out at 48.9 nM. For the same compound, at IRAK4 enzyme, the IC50 is 0.64 nM.
For the compound `CC(C)Nc1cc(-c2ccc3cc(C#N)cnn23)ncc1-c1nnc(C2CCOCC2)s1` [Example 32, 7-(4-(isopropylamino)-5-(5-(tetrahydro-2H-pyran-4-yl)-1,3,4-thiadiazol-2-yl)pyridin-2-yl)pyrrolo[1,2-b]pyridazine-3-carbonitrile], the EC50 in the assay with TNFα (LPS-stimulated, compounds 1-32, read-out: EC50 TNF) stood at 211 nM. Moreover, the IC50 at IRAK4 enzyme (compounds 1-32, read-out: IC50 HTRF) was under 1 nM.
Regarding `CC(=O)NC[C@H]1CCCN1C(=O)c1nnc(-c2cnc(-c3ccc4cc(C#N)cnn34)cc2NC(C)C)s1` [Example 42, (R)-N-((1-(5-(6-(3-cyanopyrrolo[1,2-b]pyridazin-7-yl)-4-(isopropylamino)pyridin-3-yl)-1,3,4-thiadiazole-2-carbonyl)pyrrolidin-2-yl)methyl)acetamide], the EC50 with TNFα (setting [1]) was 35.7 nM. At IRAK4 enzyme, this compound came in with an IC50 of 1.5 nM.
Consider `COC(=O)N[C@H]1CCN(C(=O)c2nnc(-c3cnc(-c4ccc5cc(C#N)cnn45)cc3NC(C)C)s2)C1` [Example 43, methyl (S)-(1-(5-(6-(3-cyanopyrrolo[1,2-b]pyridazin-7-yl)-4-(isopropylamino)pyridin-3-yl)-1,3,4-thiadiazole-2-carbonyl)pyrrolidin-3-yl)carbamate], for which the EC50 with TNFα (setting [1]) was 21.9 nM. For the same compound, the IC50 on IRAK4 enzyme came to 0.72 nM.
Turning to `CC(C)Nc1cc(-c2ccc3cc(C#N)cnn23)ncc1-c1nnc(C(=O)N2CC[C@@H](NC(=O)C3CC3)C2)s1` [Example 47, (R)-N-(1-(5-(6-(3-cyanopyrrolo[1,2-b]pyridazin-7-yl)-4-(isopropylamino)pyridin-3-yl)-1,3,4-thiadiazole-2-carbonyl)pyrrolidin-3-yl)cyclopropanecarboxamide], in the assay on TNFα (setting [1]), the EC50 was found to be 5680 nM. In addition, the IC50 on IRAK4 enzyme came out at 1.42 nM.
On the same counts, the results for `CC(=O)N1CCC2(CC1)CN(c1nnc(-c3cnc(-c4ccc5cc(C#N)cnn45)cc3NC(C)C)s1)C2` [Example 67, 7-(5-(5-(7-acetyl-2,7-diazaspiro[3.5]nonan-2-yl)-1,3,4-thiadiazol-2-yl)-4-(isopropylamino)pyridin-2-yl)pyrrolo[1,2-b]pyridazine-3-carbonitrile] are 10.4 nM and 0.59 nM.
Consider `CC(=O)N[C@@H]1C[C@H]2C[C@@H]1CN2c1nnc(-c2cnc(-c3ccc4cc(C#N)cnn34)cc2NC(C)C)s1` [Example 73, N-((1R,4R,5R)-2-(5-(6-(3-cyanopyrrolo[1,2-b]pyridazin-7-yl)-4-(isopropylamino)pyridin-3-yl)-1,3,4-thiadiazol-2-yl)-2-azabicyclo[2.2.1]heptan-5-yl)acetamide], for which the EC50 in the assay on TNFα (setting [1]) is 64.1 nM. Also, at IRAK4 enzyme, the midpoint of inhibition, the IC50, lay at 0.61 nM.
On to `CC(=O)N1CCC2(CC1)CN(c1nnc(-c3cnc(-c4ccc5cc(C#N)cnn45)cc3NC3COC3)s1)C2` [Example 75, 7-(5-(5-(7-acetyl-2,7-diazaspiro[3.5]nonan-2-yl)-1,3,4-thiadiazol-2-yl)-4-(oxetan-3-ylamino)pyridin-2-yl)pyrrolo[1,2-b]pyridazine-3-carbonitrile], for which the EC50 with TNFα (setting [1]) worked out at 3.2 nM. This compound also came in with an IC50 on IRAK4 enzyme of 0.24 nM.
On the same counts, the results for `CC(=O)N1CCC2(CC1)CN(c1nnc(-c3cnc(-c4ccc5cc(C#N)cnn45)cc3NC3CCOCC3)s1)C2` [Example 76, 7-(5-(5-(7-acetyl-2,7-diazaspiro[3.5]nonan-2-yl)-1,3,4-thiadiazol-2-yl)-4-((tetrahydro-2H-pyran-4-yl)amino)pyridin-2-yl)pyrrolo[1,2-b]pyridazine-3-carbonitrile] are 4.4 nM and 0.85 nM.
With `CC(=O)NC1CCC2(CC1)CN(c1nnc(-c3cnc(-c4ccc5cc(C#N)cnn45)cc3N[C@H](C)C#N)s1)C2` [Example 77, (R)-N-(2-(5-(4-((1-cyanoethyl)amino)-6-(3-cyanopyrrolo[1,2-b]pyridazin-7-yl)pyridin-3-yl)-1,3,4-thiadiazol-2-yl)-2-azaspiro[3.5]nonan-7-yl)acetamide], the EC50 in the assay on TNFα (setting [1]) is 3.9 nM. The compound also displayed an IC50 on IRAK4 enzyme of 1.06 nM.
For `CC(=O)NC1CCC2(CC1)CN(c1nnc(-c3cnc(-c4ccc5cc(C#N)cnn45)cc3NC3COC3)s1)C2` [Example 78, N-(2-(5-(6-(3-cyanopyrrolo[1,2-b]pyridazin-7-yl)-4-(oxetan-3-ylamino)pyridin-3-yl)-1,3,4-thiadiazol-2-yl)-2-azaspiro[3.5]nonan-7-yl)acetamide], in the assay on TNFα (setting [1]), the EC50 is 8.9 nM. This compound also had an IC50 at IRAK4 enzyme of 0.85 nM.
For `CC(C)Nc1cc(-c2ccc3cc(C#N)cnn23)ncc1-c1nnc(C(C)(C)O)s1` [Example 80, 7-(5-(5-(2-hydroxypropan-2-yl)-1,3,4-thiadiazol-2-yl)-4-(isopropylamino)pyridin-2-yl)pyrrolo[1,2-b]pyridazine-3-carbonitrile] the same measures were 114 nM and 1.16 nM.
On the same counts, the results for `CC(C)Nc1cc(-c2ccc3cc(C#N)cnn23)ncc1-c1nnc(N2CC3(CCC(C)(O)CC3)C2)s1` [Example 82, 7-(5-(5-(7-hydroxy-7-methyl-2-azaspiro[3.5]nonan-2-yl)-1,3,4-thiadiazol-2-yl)-4-(isopropylamino)pyridin-2-yl)pyrrolo[1,2-b]pyridazine-3-carbonitrile] are 23.1 nM and 1.18 nM.
Consider `CC(=O)N[C@H]1CC[C@@H](c2nnc(-c3cnc(-c4ccc5cc(C#N)cnn45)cc3NC(C)C)s2)OC1` [Example 84, N-((3S,6S)-6-(5-(6-(3-cyanopyrrolo[1,2-b]pyridazin-7-yl)-4-(isopropylamino)pyridin-3-yl)-1,3,4-thiadiazol-2-yl)tetrahydro-2H-pyran-3-yl)acetamide], for which the EC50 in the assay with TNFα (setting [1]) worked out at 8.6 nM. The same compound had an IC50 on IRAK4 enzyme of 0.47 nM.
Take `CC(=O)NC1CCC2(CC1)CN(c1nnc(-c3cnc(-c4ccc5cc(C#N)cnn45)cc3NC3(C)COC3)s1)C2` [Example 99, N-(2-(5-(6-(3-cyanopyrrolo[1,2-b]pyridazin-7-yl)-4-((3-methyloxetan-3-yl)amino)pyridin-3-yl)-1,3,4-thiadiazol-2-yl)-2-azaspiro[3.5]nonan-7-yl)acetamide]: the EC50 in the assay with TNFα (setting [1]) was 5.8 nM. Also, at IRAK4 enzyme, 0.63 nM corresponded to half-maximal inhibition (IC50).
